In the supplement of paper PMC10307832:

Assays:
Assay in all cases: relative viability (nuclei count vs DMSO), 5 days (fraction); higher = more cells survive
RU-SKI 43 + Lapatinib = compound: CC[C@@H](C)CNCC(=O)N1CCC2=C([C@@H]1COC3=CC=CC(=C3)C)C=CS2 [RU-SKI 43] + CS(=O)(=O)CCNCc1ccc(-c2ccc3ncnc(Nc4ccc(OCc5cccc(F)c5)c(Cl)c4)c3c2)o1 [Lapatinib] (partner 2 µM)
Procedure, shortened: (§1)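 A single step with final 0.05% Triton X-100, 1% formaldehyde and 1 ug/ml Hoechst fixed the cells and stained nuclei 5 days after treatment. Lung cancer cell lines in 1536-well plates had been treated by pin tool the day after seeding with one drug alone or a fixed anchor-drug dose plus five library-drug doses (not always all listed) in √10 steps, and nuclei were counted on 4× images. Relative viability is the ratio of nuclei in treated wells to nuclei in vehicle wells, taken as the median of duplicate plates.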

RU-SKI 43 + Pictilisib = compound: CC[C@@H](C)CNCC(=O)N1CCC2=C([C@@H]1COC3=CC=CC(=C3)C)C=CS2 [RU-SKI 43] + CS(=O)(=O)N1CCN(Cc2cc3nc(-c4cccc5[nH]ncc45)nc(N4CCOCC4)c3s2)CC1 [Pictilisib] (partner 1 µM)
Procedure, shortened: as §1

MK-8033 + Pictilisib = compound: Cn1cc(-c2cnc3ccc4ccc(CS(=O)(=O)NCc5ccccn5)cc4c(=O)c3c2)cn1 [MK-8033] + CS(=O)(=O)N1CCN(Cc2cc3nc(-c4cccc5[nH]ncc45)nc(N4CCOCC4)c3s2)CC1 [Pictilisib] (partner 1 µM)
Procedure, shortened: as §1

MK-8033 + Decitabine = compound: Cn1cc(-c2cnc3ccc4ccc(CS(=O)(=O)NCc5ccccn5)cc4c(=O)c3c2)cn1 [MK-8033] + Nc1ncn([C@H]2C[C@H](O)[C@@H](CO)O2)c(=O)n1 [Decitabine] (partner 2 µM)
Procedure, shortened: as §1

Cell Line	relative viability (RU-SKI 43 + Lapatinib; first compound 0.1 µM)	relative viability (RU-SKI 43 + Lapatinib; first compound 0.3162 µM)	relative viability (RU-SKI 43 + Lapatinib; first compound 1 µM)	relative viability (RU-SKI 43 + Lapatinib; first compound 3.162 µM)	relative viability (RU-SKI 43 + Lapatinib; first compound 10 µM)	relative viability (RU-SKI 43 + Pictilisib; first compound 0.1 µM)	relative viability (RU-SKI 43 + Pictilisib; first compound 0.3162 µM)	relative viability (RU-SKI 43 + Pictilisib; first compound 1 µM)	relative viability (RU-SKI 43 + Pictilisib; first compound 3.162 µM)	relative viability (RU-SKI 43 + Pictilisib; first compound 10 µM)	relative viability (MK-8033 + Pictilisib; first compound 0.02 µM)	relative viability (MK-8033 + Pictilisib; first compound 0.06325 µM)	relative viability (MK-8033 + Pictilisib; first compound 0.2 µM)	relative viability (MK-8033 + Pictilisib; first compound 0.6325 µM)	relative viability (MK-8033 + Pictilisib; first compound 2 µM)	relative viability (MK-8033 + Decitabine; first compound 0.02 µM)	relative viability (MK-8033 + Decitabine; first compound 0.06325 µM)	relative viability (MK-8033 + Decitabine; first compound 0.2 µM)	relative viability (MK-8033 + Decitabine; first compound 0.6325 µM)	relative viability (MK-8033 + Decitabine; first compound 2 µM)
HCC-44	1.12	1.02	1.15	1.04	0.995	0.668	0.504	0.77	0.675	0.566	0.623	0.409	0.542	0.69	0.738	0.95	0.933	0.948	1.02	0.954
HCC-78	0.843	0.626	1.24	0.513	0.369	0.24	0.232	0.278	0.176	0.191	0.237	0.152	0.253		0.245	0.657	0.728	0.645	0.559	0.692
HCC-366	1.03	1.33	1.21	1.15	1.05	0.134	0.196	0.175	0.221	0.137	0.151	0.0933	0.228	0.138	0.142	0.327	0.361	0.331	0.36	0.366
HCC-827	0.189	0.197	0.211	0.213	0.162	0.994	0.97	1.19	1.05	0.94	1.05	0.605	0.902	1.06	1.04	0.345		0.322	0.376	0.37
HOP-62	0.973	1.28	0.883	1.03	0.877	0.767	0.69	0.834	0.769	0.611	0.626	0.593	0.587	0.694	0.646	0.222	0.234	0.261	0.189	0.199
IA-LM	0.717	0.956	1.02	0.79	0.731	0.353	0.321	0.397	0.385	0.404	0.356	0.273	0.293	0.286	0.289					
LC-2-ad	1.05	0.969	1	0.976	0.93	0.404	0.601	0.562	0.438	0.358	0.43	0.461	0.453	0.572	0.486	0.889	1.08	0.722	0.813	0.722
LCLC-97TM1	1.08		1.02	1.04	0.781	0.191		0.213	0.162	0.188	0.187	0.148	0.199	0.215	0.19	0.218	0.207		0.209	0.211
LCLC-103H						0.663	0.629	0.712	0.624	0.691	0.616	0.589	0.593	0.737	0.638	0.699	0.724	0.673	0.736	0.766
